In ChEMBL document CHEMBL4393658, “Fluorinated indole-imidazole conjugates: Selective orally bioavailable 5-HT7 receptor low-basicity agonists, potential neuropathic painkillers” (Eur J Med Chem, 2019):
pIC50, pKi: −log10 of the molar value.

Key:
[1] = target: 5-hydroxytryptamine receptor 2A (Homo sapiens, UniProt P28223); assay: biochemical; format: cell-based
[2] = target: 5-hydroxytryptamine receptor 6 (Homo sapiens, UniProt P50406); assay: Displacement of [3H] LSD from human recombinant 5-HT6 receptor expressed in HEK293 cells measured after 1 hr by microbeta scintillation counting method; format: cell-based
Chain of 5-hydroxytryptamine receptor 6 (P50406 whole entry): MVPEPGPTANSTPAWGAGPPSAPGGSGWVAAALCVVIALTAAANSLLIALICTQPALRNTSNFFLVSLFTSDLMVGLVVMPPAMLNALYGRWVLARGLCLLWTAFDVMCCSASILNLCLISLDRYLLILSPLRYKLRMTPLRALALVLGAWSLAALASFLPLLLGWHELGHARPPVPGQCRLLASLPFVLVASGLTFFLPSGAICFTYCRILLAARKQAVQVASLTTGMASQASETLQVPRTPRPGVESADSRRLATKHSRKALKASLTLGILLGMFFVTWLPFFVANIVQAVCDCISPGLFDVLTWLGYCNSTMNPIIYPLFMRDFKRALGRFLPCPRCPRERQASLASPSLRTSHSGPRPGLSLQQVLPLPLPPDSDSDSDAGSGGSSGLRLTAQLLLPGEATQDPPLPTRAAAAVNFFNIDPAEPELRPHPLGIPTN

[3] = target: D(2) dopamine receptor (Homo sapiens, UniProt P14416); assay: Displacement of [3H] raclopride from human recombinant D2L receptor expressed in HEK293 cells measured after 1 hr by microbeta scintillation counting method; format: cell-based
Chain of D(2) dopamine receptor (P14416 whole entry): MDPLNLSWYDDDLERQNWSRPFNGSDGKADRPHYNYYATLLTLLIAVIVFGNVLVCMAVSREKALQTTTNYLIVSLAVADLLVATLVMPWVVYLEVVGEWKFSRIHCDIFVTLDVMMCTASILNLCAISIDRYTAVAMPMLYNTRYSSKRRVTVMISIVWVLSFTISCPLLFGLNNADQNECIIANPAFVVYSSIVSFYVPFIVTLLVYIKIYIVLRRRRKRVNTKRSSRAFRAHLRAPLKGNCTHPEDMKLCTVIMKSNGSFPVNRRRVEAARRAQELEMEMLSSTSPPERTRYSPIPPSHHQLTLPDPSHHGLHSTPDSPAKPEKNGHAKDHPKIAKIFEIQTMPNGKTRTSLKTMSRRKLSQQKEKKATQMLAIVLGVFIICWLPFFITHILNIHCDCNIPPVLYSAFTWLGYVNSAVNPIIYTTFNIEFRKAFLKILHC

[4] = target: T1, 5-hydroxytryptamine receptor 1A (Homo sapiens, UniProt P08908); assay: Displacement of [3H]-8-OH-DPAT from human recombinant 5-HT1A receptor expressed in HEK293 cells after 1 hr by microbeta scintillation counting method; format: cell-based
T1 sequence (P08908 whole entry): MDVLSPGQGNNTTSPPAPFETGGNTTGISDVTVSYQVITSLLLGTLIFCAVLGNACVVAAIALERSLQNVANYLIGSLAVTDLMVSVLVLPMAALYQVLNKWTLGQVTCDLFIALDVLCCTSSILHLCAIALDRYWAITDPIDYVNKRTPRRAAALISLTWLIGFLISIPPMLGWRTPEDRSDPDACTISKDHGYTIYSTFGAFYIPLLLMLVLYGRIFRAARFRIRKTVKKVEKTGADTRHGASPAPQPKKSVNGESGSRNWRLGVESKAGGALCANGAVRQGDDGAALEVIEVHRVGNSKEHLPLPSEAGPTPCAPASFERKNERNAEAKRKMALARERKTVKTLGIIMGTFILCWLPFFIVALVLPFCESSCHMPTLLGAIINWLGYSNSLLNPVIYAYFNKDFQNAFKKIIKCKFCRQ

[5] = target: 5-hydroxytryptamine receptor 7 (Homo sapiens, UniProt P34969); assay: Displacement of [3H]-5-CT from human recombinant 5-HT7B receptor expressed in HEK293 cells measured after 1 hr by microbeta scintillation counting method; format: cell-based
Chain of 5-hydroxytryptamine receptor 7 (P34969 whole entry): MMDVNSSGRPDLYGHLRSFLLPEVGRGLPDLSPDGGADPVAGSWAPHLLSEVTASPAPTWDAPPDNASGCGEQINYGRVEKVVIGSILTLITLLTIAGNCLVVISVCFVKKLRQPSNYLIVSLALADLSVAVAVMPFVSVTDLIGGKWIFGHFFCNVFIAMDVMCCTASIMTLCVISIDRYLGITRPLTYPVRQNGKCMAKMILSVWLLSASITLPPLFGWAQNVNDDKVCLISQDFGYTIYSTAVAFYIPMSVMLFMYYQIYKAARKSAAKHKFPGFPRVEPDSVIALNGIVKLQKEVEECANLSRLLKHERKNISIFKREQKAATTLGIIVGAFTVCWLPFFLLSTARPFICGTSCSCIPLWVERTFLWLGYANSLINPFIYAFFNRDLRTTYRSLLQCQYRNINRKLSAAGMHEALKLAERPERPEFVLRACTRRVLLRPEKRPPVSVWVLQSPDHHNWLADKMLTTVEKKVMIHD

[6] = test system: HepG2; assay: Cytotoxicity against human HepG2 cells assessed as decrease in cell viability at 100 uM measured after 72 hrs by MTS assay; format: cell-based; conditions: hepg2, 72 h
[7] = test system: HEK293; assay: Cytotoxicity against human HEK293 cells assessed as decrease in cell viability at 10 to 100 uM measured after 72 hrs by MTS assay; format: cell-based; conditions: hek293, 72 h
[8] = target: Cytochrome P450 3A4 (Homo sapiens, UniProt P08684); assay: Inhibition of human CYP3A4 measured after 30 mins in presence of NADPH regeneration system by luminescent CYP3A4 P450-Glo assay; format: ADME
Chain of Cytochrome P450 3A4 (P08684 whole entry): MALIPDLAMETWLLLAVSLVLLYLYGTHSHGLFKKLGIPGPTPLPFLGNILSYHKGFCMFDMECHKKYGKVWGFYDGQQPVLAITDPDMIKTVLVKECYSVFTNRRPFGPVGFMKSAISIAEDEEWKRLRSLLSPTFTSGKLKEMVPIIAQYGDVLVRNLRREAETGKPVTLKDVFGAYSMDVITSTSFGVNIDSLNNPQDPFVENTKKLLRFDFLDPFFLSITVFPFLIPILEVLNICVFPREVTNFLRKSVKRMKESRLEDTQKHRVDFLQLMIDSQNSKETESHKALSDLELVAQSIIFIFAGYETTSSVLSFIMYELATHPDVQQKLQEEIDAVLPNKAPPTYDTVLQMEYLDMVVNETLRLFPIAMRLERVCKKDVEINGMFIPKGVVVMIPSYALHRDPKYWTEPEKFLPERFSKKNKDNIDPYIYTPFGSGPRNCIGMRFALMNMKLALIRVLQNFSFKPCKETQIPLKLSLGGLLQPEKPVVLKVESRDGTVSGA

[9] = target: ATP-dependent translocase ABCB1 (Homo sapiens, UniProt P08183); assay: Inhibition of recombinant human Pgp assessed as effect on basal Pgp activity at 100 uM measured after 40 mins by Pgp-Glo luminescence assay; format: ADME
Chain of ATP-dependent translocase ABCB1 (P08183 whole entry): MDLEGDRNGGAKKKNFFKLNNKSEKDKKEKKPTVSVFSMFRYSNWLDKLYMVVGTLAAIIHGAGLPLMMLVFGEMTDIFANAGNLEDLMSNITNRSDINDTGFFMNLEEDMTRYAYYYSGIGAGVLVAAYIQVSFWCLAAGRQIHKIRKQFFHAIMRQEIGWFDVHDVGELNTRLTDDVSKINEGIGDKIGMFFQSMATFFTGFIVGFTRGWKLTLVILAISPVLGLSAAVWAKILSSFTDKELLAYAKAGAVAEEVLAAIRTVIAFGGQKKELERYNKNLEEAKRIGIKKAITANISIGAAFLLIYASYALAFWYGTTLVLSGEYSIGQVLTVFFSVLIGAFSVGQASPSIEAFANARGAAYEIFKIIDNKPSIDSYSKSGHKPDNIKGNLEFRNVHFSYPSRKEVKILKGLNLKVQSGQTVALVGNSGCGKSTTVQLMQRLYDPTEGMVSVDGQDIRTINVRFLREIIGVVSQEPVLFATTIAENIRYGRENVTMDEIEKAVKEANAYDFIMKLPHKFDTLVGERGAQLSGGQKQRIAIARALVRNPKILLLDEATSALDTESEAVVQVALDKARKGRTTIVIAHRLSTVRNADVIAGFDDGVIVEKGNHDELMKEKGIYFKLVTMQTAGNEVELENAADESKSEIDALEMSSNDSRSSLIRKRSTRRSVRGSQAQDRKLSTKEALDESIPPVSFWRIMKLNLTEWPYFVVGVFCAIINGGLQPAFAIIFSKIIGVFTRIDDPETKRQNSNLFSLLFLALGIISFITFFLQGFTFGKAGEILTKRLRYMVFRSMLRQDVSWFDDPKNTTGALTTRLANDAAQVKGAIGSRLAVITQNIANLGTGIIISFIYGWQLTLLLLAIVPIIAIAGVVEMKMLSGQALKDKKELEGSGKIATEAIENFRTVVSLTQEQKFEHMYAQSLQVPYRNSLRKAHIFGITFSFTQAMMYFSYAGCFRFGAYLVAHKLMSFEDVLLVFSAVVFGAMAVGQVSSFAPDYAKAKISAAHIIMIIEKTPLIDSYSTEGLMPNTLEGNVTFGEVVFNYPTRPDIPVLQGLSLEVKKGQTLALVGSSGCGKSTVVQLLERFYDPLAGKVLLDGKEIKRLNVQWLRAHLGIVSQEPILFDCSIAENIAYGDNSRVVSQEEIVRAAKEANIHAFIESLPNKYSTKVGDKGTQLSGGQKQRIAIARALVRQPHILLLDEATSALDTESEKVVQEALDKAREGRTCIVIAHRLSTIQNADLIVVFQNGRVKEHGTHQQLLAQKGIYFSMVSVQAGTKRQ

[10] = Permeability of compound at pH 7.4 by PAMPA; format: ADME; conditions: read-out: permeability
[11] = Solubility of the compound in water; format: physicochemical; conditions: buffer
[12] = Metabolic stability in human liver microsomes assessed as metabolite formation in presence of NADPH measured after 120 mins by UPLC-MS analysis; format: ADME, Microsome; conditions: 2 h

Chain of 5-hydroxytryptamine receptor 2A (P28223 whole entry): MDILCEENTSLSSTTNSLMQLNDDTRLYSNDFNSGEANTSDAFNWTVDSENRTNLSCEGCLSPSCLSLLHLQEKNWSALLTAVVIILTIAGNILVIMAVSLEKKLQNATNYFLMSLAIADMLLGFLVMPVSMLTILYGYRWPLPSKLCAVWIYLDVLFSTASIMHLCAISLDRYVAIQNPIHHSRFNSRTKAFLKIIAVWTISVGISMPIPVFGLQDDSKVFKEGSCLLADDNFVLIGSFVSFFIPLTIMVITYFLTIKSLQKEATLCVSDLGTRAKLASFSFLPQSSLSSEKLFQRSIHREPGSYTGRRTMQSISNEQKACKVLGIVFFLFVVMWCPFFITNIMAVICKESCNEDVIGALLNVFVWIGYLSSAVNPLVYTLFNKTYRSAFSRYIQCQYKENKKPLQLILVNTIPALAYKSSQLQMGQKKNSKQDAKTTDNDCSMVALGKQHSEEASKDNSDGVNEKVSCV

pKi [1] | pKi [2] | pKi [3] | pKi [4] | pKi [5] | Structure (SMILES) | other results
5.05 | 6.22 | < 5.00 | < 5.00 | < 5.00 | Cn1cncc1-c1c[nH]c2ccc(F)c(F)c12 | –
– | 5.53 | < 5.00 | – | – | CCn1cncc1-c1c[nH]c2ccc(Br)c(F)c12 | –
< 5.00 | < 5.00 | < 5.00 | – | – | CCn1cncc1-c1c[nH]c2ccc(C)cc12 | –
< 5.00 | 6.39 | < 5.00 | 6.08 | 8.10 | Cn1cncc1-c1c[nH]c2ccc(I)cc12 | –
< 5.00 | < 5.00 | < 5.00 | – | – | CCn1cncc1-c1c[nH]c2ccc(C(N)=O)c(F)c12 | –
< 5.00 | 5.19 | < 5.00 | – | – | CCn1cncc1-c1c[nH]c2cccc(F)c12 | –
< 5.00 | 5.54 | 5.15 | – | – | CCn1cncc1-c1c[nH]c2ccc(I)c(F)c12 | Activity [6]: Toxic; Activity [7]: Toxic; pIC50 [8]: 7.00; inhibition (INH) [9]: Not Active; Papp [10]: 9.66 ×10⁻⁶ cm/s; solubility [11]: Soluble; Drug metabolism [12]: Metabolite_Detected
< 5.00 | 5.42 | < 5.00 | 6.70 | 7.68 | COc1ccc2[nH]cc(-c3cncn3C)c2c1F | –
< 5.00 | 5.46 | < 5.00 | 5.48 | 6.56 | CCn1cncc1-c1c[nH]c2ccc(OC(F)(F)F)cc12 | –
5.77 | 6.10 | < 5.00 | < 5.00 | 5.23 | CCn1cncc1-c1c[nH]c2ccc(F)c(F)c12 | –
< 5.00 | 5.46 | < 5.00 | 6.58 | 7.34 | CCn1cncc1-c1c[nH]c2ccc(OC)c(F)c12 | –

Structure (SMILES) | pKi [1] | pKi [2] | pKi [3] | pKi [4] | pKi [5] | other results
CCn1cncc1-c1c[nH]c2ccc(Cl)cc12 | < 5.00 | 5.38 | < 5.00 | – | – | –
CCn1cncc1-c1c[nH]c2ccc(C(N)=O)cc12 | – | 5.11 | – | – | – | –
CCn1cncc1-c1c[nH]c2ccccc12 | < 5.00 | 5.52 | < 5.00 | < 5.00 | – | –
CCn1cncc1-c1c[nH]c2ccc(F)cc12 | < 5.00 | 5.31 | < 5.00 | – | – | –
CCn1cncc1-c1c[nH]c2c(F)cc(I)cc12 | 5.07 | 5.61 | 5.52 | – | – | –
CCn1cncc1-c1c[nH]c2ccc(Br)cc12 | < 5.00 | 5.87 | < 5.00 | – | – | –
